In ChEMBL document CHEMBL1129923, “Antiallergic activity of some novel oligopeptides related to immunoglobulin E” (1997):
Square brackets hold non-standard residues; d marks the D form. Peptide text beside a SMILES is read from it. NMeA = CN[C@@H](C)C(=O)O

Columns and labels:
Format in all cases: functional
[1] = tested on: Rattus norvegicus; assay: Tested for antiallergic activity by studying the protection of PCA (passive cutaneous anaphylaxis) after ip administration at a dose of 2.5 mg/kg in rats for four determinations; settings: route intraperitoneal
[2] = tested on: Rattus norvegicus; assay: Tested for antiallergic activity by studying the protection of PCA (passive cutaneous anaphylaxis) after ip administration at a dose of 5.0 mg/kg in rats for four determinations; settings: route intraperitoneal
[3] = tested on: Rattus norvegicus; assay: Tested for antiallergic activity by studying mast cell stabilising activity after ip administration at a dose of 1.0 mg/kg for five days in rats for four determinations; settings: route intraperitoneal
[4] = tested on: Rattus norvegicus; assay: Tested for antiallergic activity by studying mast cell stabilising activity after ip administration at a dose of 0.5 mg/kg for five days in rats for four determinations; settings: route intraperitoneal
[5] = tested on: Rattus norvegicus; assay: Effective dose required for inhibition of PCA at a compound concentration of 7.5 mg/kg po
[6] = tested on: Rattus norvegicus; assay: Tested for antiallergic activity by studying the protection of PCA (passive cutaneous anaphylaxis) after ip administration at a dose of 10.0 mg/kg in rats for four determinations; settings: route intraperitoneal
[7] = tested on: Rattus norvegicus; assay: Tested for antiallergic activity by studying the protection of PCA (passive cutaneous anaphylaxis) after ip administration at a dose of 0.5 mg/kg in rats for four determinations; settings: route intraperitoneal
[8] = tested on: Rattus norvegicus; assay: Tested for antiallergic activity by studying mast cell stabilising activity after ip administration at a dose of 0.2 mg/kg for five days in rats for four determinations; settings: route intraperitoneal
[9] = tested on: Rattus norvegicus; assay: Tested for antiallergic activity by studying mast cell stabilising activity after ip administration at a dose of 2.5 mg/kg for five days in rats for four determinations; settings: route intraperitoneal
[10] = tested on: Rattus norvegicus; assay: Tested for antiallergic activity by studying the protection of PCA (passive cutaneous anaphylaxis) after ip administration at a dose of 7.5 mg/kg in rats for four determinations; settings: route intraperitoneal
[11] = tested on: Rattus norvegicus; assay: Tested for antiallergic activity by studying mast cell stabilising activity after ip administration at a dose of 0.1 mg/kg for five days in rats for four determinations; settings: route intraperitoneal
[12] = tested on: Rattus norvegicus; assay: Tested for antiallergic activity by studying mast cell stabilising activity after ip administration at a dose of 0.25 mg/kg in rats for four determinations; settings: route intraperitoneal
[13] = tested on: Rattus norvegicus; assay: Tested for antiallergic activity by studying the protection of PCA (passive cutaneous anaphylaxis) after ip administration at a dose of 1.0 mg/kg in rats for four determinations; settings: route intraperitoneal
[14] = tested on: Rattus norvegicus; assay: Tested for antiallergic activity by studying the protection of PCA (passive cutaneous anaphylaxis) after ip administration at a dose of 1 mg/kg in rats for four determinations; settings: route intraperitoneal
[15] = tested on: Rattus norvegicus; assay: Effective dose required for protection of mast cells using mast cell stabilising assay at a compound concentration of 7.5 mg/kg po
[16] = tested on: Rattus norvegicus; assay: Tested for antiallergic activity by studying the protection of PCA (passive cutaneous anaphylaxis) after ip administration at a dose of 50 mg/kg in rats for four determinations; settings: route intraperitoneal
[17] = tested on: Rattus norvegicus; assay: Tested for antiallergic activity by studying mast cell stabilising activity after ip administration at a dose of 50 mg/kg in rats for four determinations; settings: route intraperitoneal

Compound: C[C@H](N)C(=O)N[C@@H](CC(=O)O)C(=O)N[C@@H](CO)C(=O)N[C@@H](CC(=O)O)C(=O)NCC(=O)N[C@@H](CCCCN)C(=O)O
- Protection [1]: 67%
- Protection [2]: 75%
- Protection [3]: 72%
- Protection [4]: 47%
- ED50 [5]: 0.9 mg/kg
- Protection [6]: 89%
- Protection [7]: 44%
- Protection [8]: 41%
- Protection [9]: 79%
- Protection [10]: 86%
- Protection [11]: 34%
- Protection [12]: 64%
- Protection [13]: 52%
- Protection [14]: 75%
- ED50 [15]: 3 mg/kg

Compound: C[C@@H](N)C(=O)N[C@@H](CC(=O)O)C(=O)N[C@@H](CO)C(=O)N[C@@H](CC(=O)O)C(=O)NCC(=O)N[C@@H](CCCCN)C(=O)O
- Protection [12]: 61%
- Protection [14]: 64%

Compound: CN[C@@H](C)C(=O)N[C@@H](CC(=O)O)C(=O)N[C@@H](CO)C(=O)N[C@@H](CC(=O)O)C(=O)NCC(=O)N[C@@H](CCCCN)C(=O)O (H-[NMeA]DSDGK-OH)
- Protection [12]: 60%
- Protection [14]: 67%

Compound: O=C([O-])c1cc(=O)c2c(OCC(O)COc3cccc4oc(C(=O)[O-])cc(=O)c34)cccc2o1.[Na+].[Na+] [CROMOLYN SODIUM]
- Protection [16]: 77%
- Protection [17]: 84%

Compound: H-ADSDGK-NH2
- Protection [12]: 61%
- Protection [14]: 68%

Compound: H-AESDGK-OH
- Protection [12]: 63%
- Protection [14]: 45%

Compound: H-AGSDGK-OH
- Protection [1]: 69%
- Protection [2]: 77%
- Protection [3]: 80%
- Protection [4]: 70%
- ED50 [5]: 0.6 mg/kg
- Protection [6]: 90%
- Protection [7]: 47%
- Protection [8]: 50%
- Protection [9]: 87%
- Protection [10]: 88%
- Protection [11]: 39%
- Protection [12]: 78%
- Protection [13]: 57%
- Protection [14]: 78%
- ED50 [15]: 1 mg/kg
